Values quoted from earlier work, collected in patent US20230140155A1, “MEDICAMENT FOR TREATMENT AND/OR PREVENTION OF CANCER” (TORAY INDUSTRIES, INC., priority 2020, published 2023).

Test system: basal-like subtype breast cancer (BLBC)
Settings: with docetaxel following epirubicin and cyclophosphamide (EC treatment)

[NH2][Pt]1([NH2])[O]C(=O)C2(CCC2)C(=O)[O]1 [carboplatin, (SP-4-2)-diammine[cyclobutan-1,1-dicaruboxylato(2-)-O,O′]platinum]
effectiveness for treatment of BLBC: not effective
